Results taken from ChEMBL document CHEMBL1124170, “N2-phenyldeoxyguanosine: a novel selective inhibitor of herpes simplex thymidine kinase” (J Med Chem, 1988).
pEC50: −log10 of the molar value.

Assays:
Thymidine kinase = molecular target: T1, Thymidine kinase (Human herpesvirus 1 (strain SC16) (HHV-1) (Human herpes simplex virus1), UniProt P06479); test: Inhibitory activity against Herpes simplex virus type-I specific thymidine kinase; set-up: species or system Human alphaherpesvirus 1 strain SC16
T1 sequence (P06479 whole entry): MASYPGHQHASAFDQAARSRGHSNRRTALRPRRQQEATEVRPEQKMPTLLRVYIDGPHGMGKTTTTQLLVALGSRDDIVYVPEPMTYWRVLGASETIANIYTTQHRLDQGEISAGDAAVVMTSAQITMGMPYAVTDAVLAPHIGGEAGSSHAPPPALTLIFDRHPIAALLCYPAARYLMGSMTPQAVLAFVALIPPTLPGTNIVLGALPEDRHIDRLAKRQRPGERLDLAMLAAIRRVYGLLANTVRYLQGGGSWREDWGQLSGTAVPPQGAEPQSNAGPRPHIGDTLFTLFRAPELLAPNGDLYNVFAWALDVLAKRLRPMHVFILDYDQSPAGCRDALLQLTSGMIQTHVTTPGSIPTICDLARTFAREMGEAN

[1] = system: Thymidine kinase (Human alphaherpesvirus 1); test: Inhibitory activity against Herpes simplex virus type-I specific thymidine kinase; No inhibition detected at 1 mM concentration

Row | SMILES | pEC50 (Thymidine kinase) | EC50 [1]
1 | CCCCc1ccc(NC2=NC(=O)C3N=CN([C@H]4C[C@H](O)[C@@H](COP(=O)(O)O)O4)C3=N2)cc1 (stereo not given in full) | 3.40 | –
2 | CCCCc1ccc(Nc2nc(N)c3ncn([C@H]4C[C@H](O)[C@@H](CO)O4)c3n2)cc1 | – | Not Active
3 | CCCCc1ccc(Nc2nc3c(ncn3COCCO)c(=O)[nH]2)cc1 | 3.85 | –
4 | Cc1ccc(Nc2nc3c(ncn3C3O[C@@H](CO)[C@H](O)[C@@H]3O)c(=O)[nH]2)cc1 (stereo not given in full) | 4.52 | –
5 | Cc1ccc(Nc2nc3nc[nH]c3c(=O)[nH]2)cc1 | 4.30 | –
6 | CCCCc1ccc(Nc2nc3c(ncn3[C@H]3C[C@H](O)[C@@H](CO)O3)c(=O)[nH]2)cc1 | 4.60 | –
7 | CCCCc1ccc(Nc2nc3nc[nH]c3c(=O)[nH]2)cc1 | 4.30 | –
8 | O=C1N=C(Nc2ccccc2)N=C2C1N=CN2[C@H]1C[C@H](O)[C@@H](COP(=O)(O)O)O1 (stereo not given in full) | 5.52 | –
9 | CCc1cccc(Nc2nc3nc[nH]c3c(=O)[nH]2)c1 | 5.52 | –
10 | CCCCc1ccc(Nc2nc3c(ncn3[C@H]3O[C@@H](CO)[C@H](O)[C@@H]3O)c(=O)[nH]2)cc1 | 4.12 | –
